From publication PMC8115619, “Generation of a chemical genetic model for JAK3” (Scientific Reports, 2021)
Entries after “also recorded” stand apart in the source; their conditions may differ.

Key:
[1] = test system: IL-2 induced STAT5 phosphorylation in spleenocytes; experiment: IL-2 induced STAT5 phosphorylation in spleenocytes; format: cell-based, mouse; conditions: wild type mice, inhibitor 1 h, 10 ng/ml IL-2
Method: (A) Single cell suspensions were prepared from the spleens of wild type mice. […] Cells were then stimulated with 10 ng/ml IL-4 for 30 min and the levels of phosphorylated STAT6 determined by immunoblotting. (B) As (A) except cells were stimulated with 10 ng/ml IL-2 and the levels of phosphorylated STAT5 determined. (C) CD8 T cells were expanded from the lymph nodes of wild type and JAK3 Cys905Ser knockin mice. Cells were rested in the absence of IL-2 for 60 min then incubated with the indicated concentrations of PF-06651600 for a further 30 min before stimulation with 10 ng/ml of IL-2 for 30 min. The levels of phosphorylated STAT5 and total ERK1/2 were then determined.
(§1) Cells were lysed directly into SDS sample buffer and aliquots run on 10% polyacrylamide gels using standard methods. Proteins were transferred onto nitrocellulose membranes, and specific proteins were detected by immunoblotting. […] Bands were detected using Clarity ECL reagents from BioRad and imaged on a Licor Odyssey Fc system. Quantification was carried out using Licor Image Studio software. After correction for the ERK1/2 levels to account for loading differences, percentage inhibition was calculated relative to the IL-4 stimulated condition. IC50 values were calculated using the same methods as for the in vitro IC50 values.

[2] = test system: GM-CSF induced STAT5 phosphorylation in BMDMs; experiment: GM-CSF induced STAT5 phosphorylation in macrophages; format: cell-based, mouse; conditions: wild type BMDMs, 10 μM inhibitor 2 h, 10 ng/ml GM-CSF
Method: (A) BMDMs were isolated from wild type mice. Cells were incubated with the indicated inhibitors in μM for 2 h before stimulation with 10 ng/ml IL-4 for 30 min. The levels of phosphorylated STAT6 were then determined by immunoblotting. (B) As (A) except cells were stimulated 10 ng/ml GM-CSF and the levels of phosphorylated STAT5 determined. (C) As (A) except cells were stimulated 10 ng/ml IL-10 and the levels of phosphorylated STAT3 determined. (D) As (A) except cells were stimulated 10 ng/ml IFNβ and the levels of phosphorylated STAT1 determined. For A–D, levels of ERK1/2 were determined as a loading control.
Bone marrow derived macrophages (BMDMs) were cultured as described. Briefly, bone marrow was flushed in PBS from the femurs and tibias of mice. […]
as §1

AMPK = experiment: Selectivity screen AMPK; format: biochemical; conditions: 1 µM inhibitor, mean
DDR2 = DDR2 (Homo sapiens, UniProt Q16832); experiment: Selectivity screen DDR2; format: biochemical; conditions: 1 µM inhibitor, mean
Sequence of DDR2 (Q16832 22-855): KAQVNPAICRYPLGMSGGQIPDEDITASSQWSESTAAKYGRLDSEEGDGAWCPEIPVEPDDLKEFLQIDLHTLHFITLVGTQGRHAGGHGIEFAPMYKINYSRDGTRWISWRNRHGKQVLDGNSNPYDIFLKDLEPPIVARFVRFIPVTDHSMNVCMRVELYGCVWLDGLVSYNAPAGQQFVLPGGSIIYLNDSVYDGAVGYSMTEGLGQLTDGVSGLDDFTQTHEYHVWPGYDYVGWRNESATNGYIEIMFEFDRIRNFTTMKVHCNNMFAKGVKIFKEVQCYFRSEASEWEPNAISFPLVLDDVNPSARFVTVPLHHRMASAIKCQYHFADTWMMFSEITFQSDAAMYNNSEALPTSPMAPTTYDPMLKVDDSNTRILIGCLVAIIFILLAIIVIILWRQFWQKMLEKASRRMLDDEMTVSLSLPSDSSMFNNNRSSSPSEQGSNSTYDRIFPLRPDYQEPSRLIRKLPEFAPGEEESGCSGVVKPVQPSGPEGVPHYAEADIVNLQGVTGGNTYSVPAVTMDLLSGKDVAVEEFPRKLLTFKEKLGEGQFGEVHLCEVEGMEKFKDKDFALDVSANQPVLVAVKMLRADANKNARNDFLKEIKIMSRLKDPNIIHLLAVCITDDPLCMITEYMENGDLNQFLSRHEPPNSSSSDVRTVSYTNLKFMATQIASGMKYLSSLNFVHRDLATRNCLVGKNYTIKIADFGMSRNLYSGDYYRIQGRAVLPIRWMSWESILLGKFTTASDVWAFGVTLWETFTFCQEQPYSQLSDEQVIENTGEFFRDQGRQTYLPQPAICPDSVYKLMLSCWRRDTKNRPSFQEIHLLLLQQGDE
Method: (§2) For the in vitro kinase assay, JAK3 (5–20 mU diluted in 50 mM Tris pH 7.5, 0.1 mM EGTA, 0.05% β-mercaptoethanol, 1 mg/ml BSA) was assayed against PDKtide ([…]) in a final volume of 25.5 µl containing 50 mM Tris pH 7.5, 0.1 mM EGTA, 0.05% β-mercaptoethanol, 100 µM substrate peptide, 10 mM magnesium acetate and 0.02 mM [33P-γ-ATP] (50–1000 cpm/pmole) and incubated for 30 min at room temperature. Assays were started by the addition of the ATP and stopped by addition of 5 µl of 0.5 M (3%) orthophosphoric acid and then harvested onto P81 Unifilter plates with a wash buffer of 50 mM orthophosphoric acid. To determine the Km for ATP, assays were run using 1, 5, 10, 20, 50, 100, 200, 400, 500 μM ATP and Km derived by non-linear regression fitting to the Michaelis–Menten equation v = Vmax[S]/(Km + [S]). IC50 values for inhibitors via non-linear regression using a parameter model: Y = Bottom + (Top–Bottom)/(1 + (IC50/X)^HillSlope). Non-linear regression was carried out in Prism (version 8). In vitro selectivity screen was carried out as described previously.

EPH-B2 = EPH-B2 (Homo sapiens, UniProt P29323); experiment: Selectivity screen EPH-B2; format: biochemical; conditions: 1 µM inhibitor, mean
Sequence of EPH-B2 (P29323 19-1055): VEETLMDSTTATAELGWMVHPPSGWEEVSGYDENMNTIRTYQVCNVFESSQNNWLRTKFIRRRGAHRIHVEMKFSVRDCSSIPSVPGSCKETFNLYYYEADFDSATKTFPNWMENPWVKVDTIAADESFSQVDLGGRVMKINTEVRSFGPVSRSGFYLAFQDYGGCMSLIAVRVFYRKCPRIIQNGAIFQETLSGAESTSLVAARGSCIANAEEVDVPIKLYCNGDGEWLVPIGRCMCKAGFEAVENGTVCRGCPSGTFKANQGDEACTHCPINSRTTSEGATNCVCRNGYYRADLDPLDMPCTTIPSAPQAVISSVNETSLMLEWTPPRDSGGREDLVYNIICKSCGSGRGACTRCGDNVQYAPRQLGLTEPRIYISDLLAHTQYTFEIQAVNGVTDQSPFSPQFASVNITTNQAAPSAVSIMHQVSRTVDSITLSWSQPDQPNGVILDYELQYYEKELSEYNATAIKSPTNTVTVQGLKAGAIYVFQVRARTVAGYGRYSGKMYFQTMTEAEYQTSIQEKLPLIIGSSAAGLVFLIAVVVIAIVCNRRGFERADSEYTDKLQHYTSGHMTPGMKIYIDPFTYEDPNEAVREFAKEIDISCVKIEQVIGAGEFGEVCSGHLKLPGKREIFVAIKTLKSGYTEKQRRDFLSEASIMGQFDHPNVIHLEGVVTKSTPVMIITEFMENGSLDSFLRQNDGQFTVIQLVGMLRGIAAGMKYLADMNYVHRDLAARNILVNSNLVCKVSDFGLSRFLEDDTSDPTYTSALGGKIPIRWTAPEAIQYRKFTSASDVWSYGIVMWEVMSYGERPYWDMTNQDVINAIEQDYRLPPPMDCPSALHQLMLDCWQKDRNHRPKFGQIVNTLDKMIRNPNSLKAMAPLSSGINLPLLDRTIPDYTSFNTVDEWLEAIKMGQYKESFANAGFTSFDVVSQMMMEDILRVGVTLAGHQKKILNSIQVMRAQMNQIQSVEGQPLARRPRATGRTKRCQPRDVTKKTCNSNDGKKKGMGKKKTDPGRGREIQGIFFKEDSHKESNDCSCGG
Method: as §2

MARK4 = MARK4 (Homo sapiens, UniProt Q96L34); experiment: Selectivity screen MARK4; format: biochemical; conditions: 1 µM inhibitor, mean
Sequence of MARK4 (Q96L34 whole entry): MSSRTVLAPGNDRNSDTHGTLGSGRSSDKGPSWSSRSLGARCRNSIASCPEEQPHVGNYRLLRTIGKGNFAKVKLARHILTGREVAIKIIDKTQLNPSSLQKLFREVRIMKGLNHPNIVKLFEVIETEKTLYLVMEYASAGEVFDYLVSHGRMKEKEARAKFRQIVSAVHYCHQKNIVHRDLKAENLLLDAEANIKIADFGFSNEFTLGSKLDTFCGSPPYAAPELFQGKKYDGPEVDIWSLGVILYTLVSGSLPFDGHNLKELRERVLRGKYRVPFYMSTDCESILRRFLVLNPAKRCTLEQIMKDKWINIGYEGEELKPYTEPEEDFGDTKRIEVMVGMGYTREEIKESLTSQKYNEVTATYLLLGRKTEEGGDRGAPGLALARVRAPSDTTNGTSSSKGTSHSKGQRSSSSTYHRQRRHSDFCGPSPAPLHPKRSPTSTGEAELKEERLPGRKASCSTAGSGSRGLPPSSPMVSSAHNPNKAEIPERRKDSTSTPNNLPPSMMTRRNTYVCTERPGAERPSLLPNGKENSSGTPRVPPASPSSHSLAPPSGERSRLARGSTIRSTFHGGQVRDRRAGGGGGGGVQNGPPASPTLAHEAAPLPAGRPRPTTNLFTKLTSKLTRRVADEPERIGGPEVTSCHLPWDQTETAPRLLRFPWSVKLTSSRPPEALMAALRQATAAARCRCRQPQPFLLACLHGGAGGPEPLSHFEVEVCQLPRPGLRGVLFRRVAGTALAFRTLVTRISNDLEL
Method: as §2

MEKK1 = MEKK1 (Homo sapiens, UniProt Q13233); experiment: Selectivity screen MEKK1; format: biochemical; conditions: 1 µM inhibitor, mean
Method: as §2

MKK2 = MKK2 (Homo sapiens, UniProt P36507); experiment: Selectivity screen MKK2; format: biochemical; conditions: 1 µM inhibitor, mean
Sequence of MKK2 (P36507 whole entry): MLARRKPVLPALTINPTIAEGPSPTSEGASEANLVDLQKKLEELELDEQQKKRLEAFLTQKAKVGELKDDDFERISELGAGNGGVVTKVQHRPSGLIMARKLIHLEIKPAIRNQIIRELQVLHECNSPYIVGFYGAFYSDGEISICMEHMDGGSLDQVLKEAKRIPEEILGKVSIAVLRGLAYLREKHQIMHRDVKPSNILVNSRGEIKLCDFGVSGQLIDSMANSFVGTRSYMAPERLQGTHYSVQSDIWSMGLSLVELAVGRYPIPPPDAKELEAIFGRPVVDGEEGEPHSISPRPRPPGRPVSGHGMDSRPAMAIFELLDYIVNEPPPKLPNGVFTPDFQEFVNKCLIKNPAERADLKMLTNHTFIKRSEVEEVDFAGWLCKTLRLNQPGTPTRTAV
Method: as §2

p38a MAPK = p38a MAPK (Homo sapiens, UniProt Q16539); experiment: Selectivity screen p38a MAPK; format: biochemical; conditions: 1 µM inhibitor, mean
Sequence of p38a MAPK (Q16539 whole entry): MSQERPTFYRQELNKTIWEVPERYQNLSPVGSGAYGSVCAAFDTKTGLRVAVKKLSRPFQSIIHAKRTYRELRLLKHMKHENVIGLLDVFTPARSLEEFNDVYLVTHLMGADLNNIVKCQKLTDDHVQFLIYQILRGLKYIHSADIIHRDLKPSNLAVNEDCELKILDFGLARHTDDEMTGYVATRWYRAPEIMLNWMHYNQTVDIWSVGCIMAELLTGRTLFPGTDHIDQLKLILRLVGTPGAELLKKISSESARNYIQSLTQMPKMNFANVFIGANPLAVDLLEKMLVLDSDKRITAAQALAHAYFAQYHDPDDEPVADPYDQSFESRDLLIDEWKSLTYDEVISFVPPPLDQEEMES
Method: as §2

p38d MAPK = p38d MAPK (Homo sapiens, UniProt O15264); experiment: Selectivity screen p38d MAPK; format: biochemical; conditions: 1 µM inhibitor, mean
Sequence of p38d MAPK (O15264 whole entry): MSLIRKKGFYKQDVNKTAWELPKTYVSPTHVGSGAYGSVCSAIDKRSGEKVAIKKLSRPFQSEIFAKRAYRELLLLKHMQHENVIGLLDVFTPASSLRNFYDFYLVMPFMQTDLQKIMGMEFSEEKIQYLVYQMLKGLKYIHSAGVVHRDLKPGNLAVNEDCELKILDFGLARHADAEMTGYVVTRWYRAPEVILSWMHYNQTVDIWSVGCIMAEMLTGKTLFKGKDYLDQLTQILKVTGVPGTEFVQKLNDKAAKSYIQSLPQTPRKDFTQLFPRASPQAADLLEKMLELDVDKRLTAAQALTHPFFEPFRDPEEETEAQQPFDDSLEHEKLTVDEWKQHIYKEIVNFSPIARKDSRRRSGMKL
Method: as §2

PIM1 = PIM1 (Homo sapiens, UniProt P11309); experiment: Selectivity screen PIM1; format: biochemical; conditions: 1 µM inhibitor, mean
Sequence of PIM1 (P11309 whole entry): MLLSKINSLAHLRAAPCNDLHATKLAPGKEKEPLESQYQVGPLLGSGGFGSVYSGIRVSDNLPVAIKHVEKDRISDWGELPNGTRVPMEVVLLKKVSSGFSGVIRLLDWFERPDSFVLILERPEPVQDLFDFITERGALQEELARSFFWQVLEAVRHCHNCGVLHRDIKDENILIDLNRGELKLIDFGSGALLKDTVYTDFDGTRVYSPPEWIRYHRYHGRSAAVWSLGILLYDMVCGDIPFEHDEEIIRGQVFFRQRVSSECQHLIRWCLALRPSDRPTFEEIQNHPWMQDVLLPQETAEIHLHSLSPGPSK
Method: as §2

PIM2 = PIM2 (Homo sapiens, UniProt Q9P1W9); experiment: Selectivity screen PIM2; format: biochemical; conditions: 1 µM inhibitor, mean
Method: as §2

PRK2 = PRK2 (Homo sapiens, UniProt Q16513); experiment: Selectivity screen PRK2; format: biochemical; conditions: 1 µM inhibitor, mean
Sequence of PRK2 (Q16513 whole entry): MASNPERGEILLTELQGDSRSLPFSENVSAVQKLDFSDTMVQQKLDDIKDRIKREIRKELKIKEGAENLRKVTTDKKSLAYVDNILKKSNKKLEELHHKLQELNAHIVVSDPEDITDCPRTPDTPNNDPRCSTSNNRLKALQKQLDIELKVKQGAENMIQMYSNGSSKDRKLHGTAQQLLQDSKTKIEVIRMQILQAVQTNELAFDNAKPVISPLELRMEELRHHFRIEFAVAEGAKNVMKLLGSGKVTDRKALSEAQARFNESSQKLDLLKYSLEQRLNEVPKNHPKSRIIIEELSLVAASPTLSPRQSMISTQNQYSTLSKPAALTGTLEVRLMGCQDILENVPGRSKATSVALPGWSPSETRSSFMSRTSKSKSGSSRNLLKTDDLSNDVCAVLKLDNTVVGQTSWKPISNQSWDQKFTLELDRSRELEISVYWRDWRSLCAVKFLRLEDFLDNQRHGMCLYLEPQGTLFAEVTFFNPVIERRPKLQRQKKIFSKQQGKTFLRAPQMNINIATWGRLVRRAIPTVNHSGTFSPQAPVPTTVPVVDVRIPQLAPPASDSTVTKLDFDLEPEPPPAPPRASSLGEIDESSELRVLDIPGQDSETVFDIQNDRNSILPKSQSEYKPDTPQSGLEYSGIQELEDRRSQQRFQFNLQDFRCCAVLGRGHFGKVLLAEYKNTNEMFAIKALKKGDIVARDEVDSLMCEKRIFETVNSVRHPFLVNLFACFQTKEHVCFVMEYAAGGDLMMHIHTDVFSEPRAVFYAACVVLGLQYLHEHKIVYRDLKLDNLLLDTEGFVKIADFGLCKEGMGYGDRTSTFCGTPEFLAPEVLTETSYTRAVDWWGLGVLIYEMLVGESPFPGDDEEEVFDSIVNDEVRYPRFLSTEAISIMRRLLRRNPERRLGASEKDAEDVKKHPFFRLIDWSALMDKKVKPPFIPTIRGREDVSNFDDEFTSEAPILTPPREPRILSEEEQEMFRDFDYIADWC
Method: as §2

SYK = SYK (Homo sapiens, UniProt P43405); experiment: Selectivity screen SYK; format: biochemical; conditions: 1 µM inhibitor, mean
Method: as §2

TAO1 = TAO1 (Homo sapiens, UniProt Q7L7X3); experiment: Selectivity screen TAO1; format: biochemical; conditions: 1 µM inhibitor, mean
Method: as §2

Compound	block of IL-2 induced STAT5 phosphorylation in spleenocytes [1]	inhibition of GM-CSF induced STAT5 phosphorylation [2]	activity remaining in the presence of the inhibitor: AMPK (AMPK)	activity remaining in the presence of the inhibitor: DDR2 (DDR2)	activity remaining in the presence of the inhibitor: EPH-B2 (EPH-B2)	activity remaining in the presence of the inhibitor: MARK4 (MARK4)	activity remaining in the presence of the inhibitor: MEKK1 (MEKK1)	activity remaining in the presence of the inhibitor: MKK2 (MKK2)	activity remaining in the presence of the inhibitor: p38a MAPK (p38a MAPK)	activity remaining in the presence of the inhibitor: p38d MAPK (p38d MAPK)	activity remaining in the presence of the inhibitor: PIM1 (PIM1)	activity remaining in the presence of the inhibitor: PIM2 (PIM2)	activity remaining in the presence of the inhibitor: PRK2 (PRK2)	activity remaining in the presence of the inhibitor: SYK (SYK)	activity remaining in the presence of the inhibitor: TAO1 (TAO1)
C=CC(=O)Nc1cccc(CNc2nc(Nc3ccc(N4CCOCC4)cc3)ncc2Cl)c1 [TL8-52]	able to block	Neither TL8-52 or PF-06651600 inhibited	80	76	81	28	103	63	119	93	111	100	52	63	91
C=CC(=O)Nc1cccc(CNc2nc(Nc3ccc(N4CCN(C)CC4)cc3OC)ncc2Cl)c1 [TL6-144]			91	83	96	76	95	93	96	94	95	97	78	107	99
C=CC(=O)N1C[C@H](Nc2ncnc3[nH]ccc23)CC[C@@H]1C [PF-06651600, 1-((2S,5R)-5-((7H-Pyrrolo[2,3-d]pyrimidin-4-yl)amino)-2-methylpiperidin-1-yl)prop-2-en-1-one, reference compound]	able to block	Neither TL8-52 or PF-06651600 inhibited; also recorded: did not block													
